Legend:
Huh7 cells [1] = assay: MTT in vitro therapeutic effect; type: cell-based, human; settings: 10 μg/mL DOX, 60 μg/mL PCN-224, 70 μg/mL DOX@PCN-224 or DOX@Gal-PCN-224
Method: (§1) The in vitro therapeutic effect of the inorganic nanomaterial DOX@Gal-PCN-224 was detected by the live and death staining method and the corresponding MTT experiment.
(§2) Human hepatoma cells Huh7 were inoculated in a laser confocal culture dish (35 mm) at the density of 8×10^4 per well. After culturing for 24 hours, the cells were incubated with a medium containing 10 μg/mL DOX, 60 μg/mL PCN-224, 70 μg/mL DOX@PCN-224 (with the drug loading ratio of 14.2, and the DOX content of about 10 μg/mL) or 70 μg/mL DOX@Gal-PCN-224 (with the drug loading ratio of 14.2, and the DOX content of about 10 μg/mL) respectively for 24 hours. Then the light group was irradiated with a 660 nm light source for 10 min. After incubating for 24 hours, Calcein-AM/PI live and dead co-staining was performed. Finally, the cells were observed under the confocal laser. After the same treatment, the therapeutic effect of each group was further quantified by the MTT experiment.

Huh7 cells [2] = assay: Calcein-AM/PI live and dead staining, in vitro therapeutic effect; type: cell-based, human; settings: 10 μg/mL DOX, 60 μg/mL PCN-224, 70 μg/mL DOX@PCN-224 or DOX@Gal-PCN-224
Method: as §1, §2

subcutaneous solid tumor = assay: Inhibition of tumor growth in subcutaneous solid tumor mouse models; type: in vivo, BALB/c nude mice; settings: no laser; tail vein, DOX 2 mg/kg, PCN-224 12 mg/kg, DOX@PCN-224 and DOX@Gal-PCN-224 14 mg/kg; last day (day 21) versus saline
Method: To construct subcutaneous solid tumor mouse models, male BALB/c nude mice with the average weight of 14-17 g at the age of 4 weeks were inoculated with 0.1 ml of 6×10^6 cells/ml PBS at the right gluteus. After four weeks, when the tumor size exceeded 200 mm^3 (volume=0.52×tumor length×tumor width^2), the mice were divided into 2 groups with 5 mice in each group. The DOX@PCN-224-RhB (0.1 mL 0.4 mg/mL) and DOX@Gal-PCN-224-RhB (0.1 mL 0.4 mg/ml) were injected into the tail vein respectively. The fluorescence signal of RhB was detected by a small animal imager (Bruker In Vivo Xtreme II) at set time points (3, 6, 12, 24, 48 hours). Then the mice were sacrificed, the heart, liver, spleen, lung and kidney were isolated, and the RhB fluorescence signal of each organ was detected.
When the subcutaneous tumor size of the mice exceeded 50 mm^3, the mice were randomly divided into 9 groups with 5 mice in each group: (1) saline, (2) free DOX saline (2 mg/kg), (3) free DOX+660 nm laser (2 mg/kg), (4) PCN-224 (12 mg/kg), (5) PCN-224+660 nm laser (12 mg/kg), (6) DOX@PCN-224 (14 mg/kg), (7) DOX@PCN-224+660 nm laser (14 mg/kg), (8) DOX@Gal-PCN-224 (14 mg/kg), and (9) DOX@Gal-PCN-224+660 nm laser (14 mg/kg). […] At the specified time points (days 3, 6, 9, 12, 15, 18, and 21), the tumor volume and mouse body weight of the experimental groups were measured. […]

In the case of `COc1cccc2c1C(=O)c1c(O)c3c(c(O)c1C2=O)C[C@@](O)(C(=O)CO)C[C@@H]3O[C@H]1C[C@H](N)[C@H](O)[C@H](C)O1` [DOX, doxorubicin], the Cell viability (Huh7 cells [1]; Huh7, + 660 nm laser 10 min) was 79%, the Cell viability (Huh7 cells [1]; Huh7, no laser) was 82% and the “live and dead staining (red fluorescence = dead cells, apoptosis)” value (Huh7 cells [2]; Huh7, 660 nm light 10 min) was “only sporadic red fluorescence”. For the same compound, the “live and dead staining (red fluorescence = dead cells, apoptosis)” value (Huh7 cells [2]; Huh7, no light) was “only sporadic red fluorescence” and the Tumor inhibition efficiency (subcutaneous solid tumor) was 49.8%.

Reference: patent US12128111B2, “Glyco-metal-organic frameworks-based hepatic targeted therapeutic drug and preparation method thereof” (Jiangnan University, priority 2019, dated 2024)
